SMILES strings stand for the structures.

The target in the experiment is T1, Recombinant human KIF18A (1-467 His-tagged) protein (Homo sapiens, UniProt Q8NI77).
T1 construct: Recombinant human KIF18A (1-467 His-tagged) protein; His; made in house
T1 sequence (Q8NI77 1-467): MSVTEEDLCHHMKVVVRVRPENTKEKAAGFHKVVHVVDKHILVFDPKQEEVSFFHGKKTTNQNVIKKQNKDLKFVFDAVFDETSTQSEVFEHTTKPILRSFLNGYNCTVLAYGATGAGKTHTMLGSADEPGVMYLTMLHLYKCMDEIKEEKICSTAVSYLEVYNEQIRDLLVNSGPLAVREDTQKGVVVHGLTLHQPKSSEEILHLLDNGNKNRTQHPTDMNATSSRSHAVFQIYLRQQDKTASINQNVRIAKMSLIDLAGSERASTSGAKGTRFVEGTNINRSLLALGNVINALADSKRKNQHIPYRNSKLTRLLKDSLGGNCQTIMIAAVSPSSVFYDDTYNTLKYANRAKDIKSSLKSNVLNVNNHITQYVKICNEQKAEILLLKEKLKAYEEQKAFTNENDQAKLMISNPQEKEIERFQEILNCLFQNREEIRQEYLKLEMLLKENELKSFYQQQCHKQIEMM
T1 sequence (P02550 whole entry partner): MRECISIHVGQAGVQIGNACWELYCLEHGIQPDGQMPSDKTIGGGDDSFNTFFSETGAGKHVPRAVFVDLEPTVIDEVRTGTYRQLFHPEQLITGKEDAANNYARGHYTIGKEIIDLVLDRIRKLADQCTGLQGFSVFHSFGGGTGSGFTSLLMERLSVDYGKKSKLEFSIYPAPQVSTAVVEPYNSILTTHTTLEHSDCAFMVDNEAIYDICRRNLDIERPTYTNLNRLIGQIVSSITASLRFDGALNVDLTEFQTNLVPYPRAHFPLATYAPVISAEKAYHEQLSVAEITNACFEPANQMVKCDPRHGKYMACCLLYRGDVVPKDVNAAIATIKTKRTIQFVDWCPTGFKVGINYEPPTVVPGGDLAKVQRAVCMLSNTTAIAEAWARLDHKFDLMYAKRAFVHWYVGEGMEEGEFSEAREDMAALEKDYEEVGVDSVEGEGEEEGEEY
T1 sequence (P02554 whole entry partner): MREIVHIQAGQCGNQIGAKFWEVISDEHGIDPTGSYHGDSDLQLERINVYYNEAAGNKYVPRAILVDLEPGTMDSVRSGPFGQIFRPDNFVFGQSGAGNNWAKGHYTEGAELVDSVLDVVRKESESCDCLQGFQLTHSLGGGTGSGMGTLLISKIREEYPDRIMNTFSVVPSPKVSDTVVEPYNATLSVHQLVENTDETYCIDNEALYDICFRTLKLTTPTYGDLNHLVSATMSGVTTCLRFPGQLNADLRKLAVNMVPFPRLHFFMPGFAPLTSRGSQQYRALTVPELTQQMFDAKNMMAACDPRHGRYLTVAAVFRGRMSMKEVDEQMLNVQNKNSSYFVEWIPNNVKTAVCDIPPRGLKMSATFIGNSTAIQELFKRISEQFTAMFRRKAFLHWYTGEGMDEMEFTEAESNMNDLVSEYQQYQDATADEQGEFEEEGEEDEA
The experiment in a line: KIF18A Enzyme Assay: microtubule-stimulated ATPase activity (ADP-Glo). The format is biochemical. To be noted: 30 nM KIF18A, 75 μM ATP. Put shortly: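 Recombinant human KIF18A (1-467, His-tagged), baculovirus-expressed, assayed for microtubule-stimulated ATPase activity; ADP formed detected by ADP-Glo luminescence. Compounds tested as 22-point 2-fold serial dilutions in DMSO. IC50 from four-parameter logistic fit.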
A word on the IC50: it is the concentration that inhibits the measured activity by half. Regarding `CC(C)(C)NS(=O)(=O)c1cccc(NC(=O)c2ccc(N[C@@H]3CCOC[C@H]3O)nc2N2CCC3(CC2)CC3)c1` [Example 102-24, N-(3-(N-(tert-butyl)sulfamoyl)phenyl)-6-(((3S,4R)-3-hydroxytetrahydro-2H-pyran-4-yl)amino)-2-(6-azaspiro[2.5]octan-6-yl)nicotinamide], the IC50 is 259 nM.

In the case of `CCNc1ccc(C(=O)Nc2cccc(S(=O)(=O)C3CCCC3)c2)c(N2CCC3(CCC3)CC2)n1` [Example 103-23, N-(3-(cyclopentylsulfonyl)phenyl)-6-(ethylamino)-2-(7-azaspiro[3.5]nonan-7-yl)nicotinamide], the half-maximal inhibitory concentration (IC50) is 97 nM.

On to `CC(C)(CO)Nc1ccc(C(=O)Nc2cccc(S(=O)(=O)C(C)(C)C(F)(F)F)c2)c(N2CCC3(CC2)CC3)n1` [Example 105-3, 6-((1-hydroxy-2-methylpropan-2-yl)amino)-2-(6-azaspiro[2.5]octan-6-yl)-N-(3-((1,1,1-trifluoro-2-methylpropan-2-yl)sulfonyl)phenyl)nicotinamide], for which the IC50 turned out to be 208 nM.

Take `O=C(Nc1cccc(S(=O)(=O)N2CCCCC2)c1)c1cccnc1N1CCC2(CCC2)CC1` [Example 100-4, N-(3-(piperidin-1-ylsulfonyl)phenyl)-2-(7-azaspiro[3.5]nonan-7-yl)nicotinamide]: the IC50 came to 217 nM.

For the compound `CC(C)(C)NS(=O)(=O)c1cccc(NC(=O)c2ccc(N3CCC(F)(F)C3)nc2N2CCC3(CC2)CC3)c1` [Example 102-2, N-(3-(N-(tert-butyl)sulfamoyl)phenyl)-6-(3,3-difluoropyrrolidin-1-yl)-2-(6-azaspiro[2.5]octan-6-yl)nicotinamide], the IC50 stood at 302 nM.

Turning to `O=C(Nc1cccc(S(=O)(=O)C2CCCC2)c1)c1ccc(N[C@@H]2CC[C@H]2O)nc1N1CCC2(CC1)CC2` [Example 103-14, N-(3-(cyclopentylsulfonyl)phenyl)-6-(((1R,2R)-2-hydroxycyclobutyl)amino)-2-(6-azaspiro[2.5]octan-6-yl)nicotinamide], the IC50 amounted to 161 nM.

As to `CC(C)(C)NS(=O)(=O)c1cc(NC(=O)c2ccc(NC(C)(C)CO)nc2N2CCC3(CC2)CC3)cc(C2CC2)c1` [Example 112-2, N-(3-(N-(tert-butyl)sulfamoyl)-5-cyclopropylphenyl)-6-((1-hydroxy-2-methylpropan-2-yl)amino)-2-(6-azaspiro[2.5]octan-6-yl)nicotinamide], the IC50 worked out at 633 nM.

In the case of `O=C(Nc1cccc(S(=O)(=O)C2CCCC2)c1)c1ccncc1N1CCC2(CC1)CC2` [Example 114-1, N-(3-(cyclopentylsulfonyl)phenyl)-3-(6-azaspiro[2.5]octan-6-yl)isonicotinamide], the IC50 was 253 nM.

Take `Cc1ccc(NC(=O)c2ccc(NC3(CO)CC3)nc2N2CCC3(CC2)CC3)cc1S(=O)(=O)C1CCCC1` [Example 105-10, N-(3-(cyclopentylsulfonyl)-4-methylphenyl)-6-((1-(hydroxymethyl)cyclopropyl)amino)-2-(6-azaspiro[2.5]octan-6-yl)nicotinamide]: the IC50 was determined as 58 nM.

For `CC(C)(C)NS(=O)(=O)c1cccc(NC(=O)c2ccc(NC(C)(CO)CO)nc2N2CCC3(CC2)CC3)c1` [Example 106-5, N-(3-(N-(tert-butyl)sulfamoyl)phenyl)-6-((1,3-dihydroxy-2-methylpropan-2-yl)amino)-2-(6-azaspiro[2.5]octan-6-yl)nicotinamide], the IC50 is 53 nM.

`CC(C)(C)NS(=O)(=O)c1cccc(NC(=O)c2ccc(NC(CO)CO)nc2N2CCC3(CC2)CC3)c1` [Example 106-2, N-(3-(N-(tert-butyl)sulfamoyl)phenyl)-6-((1,3-dihydroxypropan-2-yl)amino)-2-(6-azaspiro[2.5]octan-6-yl)nicotinamide]: the IC50 stood at 109 nM.

`C[C@H](CO)Nc1ccc(C(=O)Nc2cccc(S(=O)(=O)C3CCCC3)c2)c(N2CCC3(CC2)CC3)n1` [Example 103-10, (R)-N-(3-(cyclopentylsulfonyl)phenyl)-6-((1-hydroxypropan-2-yl)amino)-2-(6-azaspiro[2.5]octan-6-yl)nicotinamide]: the IC50 was 42 nM.

`Cc1cc(NC(=O)c2ccc(NC(C)(C)CO)nc2N2CCC3(CC2)CC3)cc(S(=O)(=O)NC(C)(C)C)c1` [Example 105-18, N-(3-(N-(tert-butyl)sulfamoyl)-5-methylphenyl)-6-((1-hydroxy-2-methylpropan-2-yl)amino)-2-(6-azaspiro[2.5]octan-6-yl)nicotinamide]: the concentration for half-maximal inhibition (IC50) was determined as 122 nM.

Consider `Cc1ccc(NC(=O)c2ccc(NC(C)(C)CO)nc2N2CCC3(CC2)CC3)cc1-c1cccnc1` [Example 111-11, 6-((1-hydroxy-2-methylpropan-2-yl)amino)-N-(4-methyl-3-(pyridin-3-yl)phenyl)-2-(6-azaspiro[2.5]octan-6-yl)nicotinamide], for which the concentration for half-maximal inhibition (IC50) was 306 nM.

Regarding `CC(O)(c1ccc(C(=O)Nc2cccc(S(=O)(=O)C3CCCC3)c2)c(N2CCC3(CC2)CC3)n1)C(F)(F)F` (centres unmarked) [Example 108-2, N-(3-(cyclopentylsulfonyl)phenyl)-2-(6-azaspiro[2.5]octan-6-yl)-6-(1,1,1-trifluoro-2-hydroxypropan-2-yl)nicotinamide], the IC50 was determined as 65 nM.

For `CN(C1CCC1)S(=O)(=O)c1cccc(NC(=O)c2cccnc2N2CCC3(CC2)CC3)c1` [Example 101-2, N-(3-(N-cyclobutyl-N-methylsulfamoyl)phenyl)-2-(6-azaspiro[2.5]octan-6-yl)nicotinamide], the IC50 is 610 nM.

Take `CC(C)(C)NS(=O)(=O)c1cccc(NC(=O)c2ccc(N3CC(S(C)(=O)=O)C3)nc2N2CCC3(CC2)CC3)c1` [Example 102-15, N-(3-(N-(tert-butyl)sulfamoyl)phenyl)-6-(3-(methylsulfonyl)azetidin-1-yl)-2-(6-azaspiro[2.5]octan-6-yl)nicotinamide]: the IC50 was 182 nM.

`O=C(Nc1cccc(S(=O)(=O)N2CCC(F)(F)CC2)c1)c1cccnc1N1CCC2(CCC2)CC1` [Example 100-6, N-(3-((4,4-difluoropiperidin-1-yl)sulfonyl)phenyl)-2-(7-azaspiro[3.5]nonan-7-yl)nicotinamide]: the IC50 was 90 nM.

As to `CC1(NS(=O)(=O)c2cccc(NC(=O)c3ccc(NC(CO)CO)nc3N3CCC4(CC3)CC4)c2)CCC1` [Example 106-1, 6-((1,3-dihydroxypropan-2-yl)amino)-N-(3-(N-(1-methylcyclobutyl)sulfamoyl)phenyl)-2-(6-azaspiro[2.5]octan-6-yl)nicotinamide], the IC50 amounted to 78 nM.

Consider `CC(C)(C)NS(=O)(=O)c1cc(NC(=O)c2ccc(NC(C)(C)CO)nc2N2CCC3(CC2)CC3)ccc1F` [Example 105-17, N-(3-(N-(tert-butyl)sulfamoyl)-4-fluorophenyl)-6-((1-hydroxy-2-methylpropan-2-yl)amino)-2-(6-azaspiro[2.5]octan-6-yl)nicotinamide], for which the IC50 was 116 nM.

Take `CC(O)(c1ccc(C(=O)Nc2cccc(S(=O)(=O)NC3CC3)c2)c(N2CCC3(CC2)CC3)n1)C(F)(F)F` (centres unmarked) [Example 108-1, N-(3-(N-cyclopropylsulfamoyl)phenyl)-2-(6-azaspiro[2.5]octan-6-yl)-6-(1,1,1-trifluoro-2-hydroxypropan-2-yl)nicotinamide]: the IC50 came out at 52 nM.

Consider `C[C@H](O)CNc1ccc(C(=O)Nc2cccc(S(=O)(=O)C3CCCC3)c2)c(N2CCC3(CC2)CC3)n1` [Example 103-12, (S)-N-(3-(cyclopentylsulfonyl)phenyl)-6-((2-hydroxypropyl)amino)-2-(6-azaspiro[2.5]octan-6-yl)nicotinamide], for which the IC50 was 65 nM.

Regarding `Cc1cnc(-c2cccc(NC(=O)c3ccc(NC(C)(C)CO)nc3N3CCC4(CC3)CC4)c2)o1` [Example 111-6, 6-((1-hydroxy-2-methylpropan-2-yl)amino)-N-(3-(5-methyloxazol-2-yl)phenyl)-2-(6-azaspiro[2.5]octan-6-yl)nicotinamide], the IC50 was found to be 135 nM.

With `O=C(Nc1cccc(S(=O)(=O)C2CCCC2)c1)c1cccnc1N1CCC2(CC1)CC(F)(F)C2` [Example 100-19, N-(3-(cyclopentylsulfonyl)phenyl)-2-(2,2-difluoro-7-azaspiro[3.5]nonan-7-yl)nicotinamide], the concentration for half-maximal inhibition (IC50) turned out to be 734 nM.

In the case of `CC(C)CS(=O)(=O)c1cccc(NC(=O)c2ccc(NC(C)(C)CO)nc2N2CCC3(CC2)CC3)c1` [Example 105-4, 6-((1-hydroxy-2-methylpropan-2-yl)amino)-N-(3-(isobutylsulfonyl)phenyl)-2-(6-azaspiro[2.5]octan-6-yl)nicotinamide], the IC50 is 42 nM.

As to `CC(C)(C)NS(=O)(=O)c1cccc(NC(=O)c2ccc(NC(C)(C)CCO)nc2N2CCC3(CC2)CC3)c1` [Example 103-28, N-(3-(N-(tert-butyl)sulfamoyl)phenyl)-6-((4-hydroxy-2-methylbutan-2-yl)amino)-2-(6-azaspiro[2.5]octan-6-yl)nicotinamide], the IC50 was found to be 80 nM.

Regarding `Cn1ccnc1-c1cccc(NC(=O)c2ccc(NC(C)(C)CO)nc2N2CCC3(CC2)CC3)c1` [Example 111-9, 6-((1-hydroxy-2-methylpropan-2-yl)amino)-N-(3-(1-methyl-1H-imidazol-2-yl)phenyl)-2-(6-azaspiro[2.5]octan-6-yl)nicotinamide], the IC50 came to 437 nM.

With `CC(C)(C)NS(=O)(=O)c1cc(NC(=O)c2ccc(NC(C)(C)CO)nc2N2CCC3(CC2)CC3)cc(-c2cccnc2)c1` [Example 112-3, N-(3-(N-(tert-butyl)sulfamoyl)-5-(pyridin-3-yl)phenyl)-6-((1-hydroxy-2-methylpropan-2-yl)amino)-2-(6-azaspiro[2.5]octan-6-yl)nicotinamide], the IC50 amounted to 561 nM.

As for `O=C(Nc1cccc(S(=O)(=O)C2CCCC2)c1)c1ccc(NC2(CO)CCC2)nc1N1CCC2(CC1)CC2` [Example 103-5, N-(3-(cyclopentylsulfonyl)phenyl)-6-((1-(hydroxymethyl)cyclobutyl)amino)-2-(6-azaspiro[2.5]octan-6-yl)nicotinamide], the IC50 amounted to 54 nM.

For the origin of these results see patent US12540129B2, “KIF18A inhibitors” (AMGEN INC., priority 2019, dated 2026).
